Columns and labels:
Type in all cases: ADME
[1] = The compound was evaluated for the apparent first-order rate of reaction of ONOO- with antioxidant
[2] = The compound was evaluated for the apparent first-order rate of reaction of ONOO- with antioxidant in presence of catalyst
[3] = The compound was evaluated for the rate of oxoMn (IV) reduction

kONOO- [1] [M⁻¹ s⁻¹]	k cat [2] [M⁻¹ s⁻¹]	kred [3] [M⁻¹ s⁻¹]	SMILES
88	2200000	54000000	O=C1O[C@H]([C@@H](O)CO)C(O)=C1O [ASCORBIC ACID]
580	3200000	130000	N[C@@H](CCC(=O)N[C@@H](CS)C(=O)NCC(=O)O)C(=O)O [GLUTATHIONE]
33	1100000	7000000	Cc1c(C)c2c(c(C)c1O)CCC(C)(C(=O)O)O2 (centres undefined) [TROLOX]
